ChEMBL document CHEMBL1149727, “Sesquiterpenes from clove (Eugenia caryophyllata) as potential anticarcinogenic agents” (1992)

Columns and labels:
Mus musculus [1] = experiment: Ratio of drug to control in induction of cytosolic Glutathione S-transferase activity per mg of protein in A/J mouse forestomach at 20 mg, po for once every 2 days for total three doses measured after 24 hrs of last dose; assay type: functional, Stomach
Mus musculus [2] = experiment: Ratio of drug to control in induction of cytosolic Glutathione S-transferase activity per mg of protein in A/J mouse liver at 20 mg, po for once every 2 days for total three doses measured after 24 hrs of last dose; assay type: functional
Mus musculus [3] = experiment: Induction of cytosolic Glutathione S-transferase activity per mg of protein in A/J mouse small bowel mucosa at 20 mg, po for once every 2 days for total three doses measured after 24 hrs of last dose; assay type: functional
Mus musculus [4] = experiment: Ratio of drug to control in induction of cytosolic Glutathione S-transferase activity per mg of protein in A/J mouse small bowel mucosa at 20 mg, po for once every 2 days for total three doses measured after 24 hrs of last dose; assay type: functional
Mus musculus [5] = experiment: Induction of cytosolic Glutathione S-transferase activity per mg of protein in A/J mouse forestomach at 20 mg, po for once every 2 days for total three doses measured after 24 hrs of last dose; assay type: functional, Stomach
Mus musculus [6] = experiment: Induction of cytosolic Glutathione S-transferase activity per mg of protein in A/J mouse liver at 20 mg, po for once every 2 days for total three doses measured after 24 hrs of last dose; assay type: functional

Structure (SMILES)	Ratio (Mus musculus [1])	Ratio (Mus musculus [2])	Activity (Mus musculus [3]) [µmol/min]	Ratio (Mus musculus [4])	Activity (Mus musculus [5]) [µmol/min]	Activity (Mus musculus [6]) [µmol/min]
C=C1CC[C@@H]2O[C@]2(C)CC[C@@H]2[C@@H]1CC2(C)C	0.95	2.88	1.2	4.8	0.59	2.13
C/C1=C\CC[C@@]2(C)O[C@@H]2CC(C)(C)/C=C/C1	1.24	2.08	0.81	3.24	0.77	1.54
C/C1=C\CC/C(C)=C/CC(C)(C)/C=C/C1 [ALPHA-HUMULONE]	1.02	1.99	0.63	2.52	0.63	1.47
C=C1CC/C=C(\C)CC[C@@H]2[C@@H]1CC2(C)C [BETA-CARYOPHYLLENE]	1.24	2.59	0.75	3	0.77	1.92
C=CCc1ccc(O)c(OC)c1 [EUGENOL]	1.21	1.26	0.59	2.36	0.75	0.93
